Like-named read-outs stand apart in the source and are kept apart here.
Assays:
TLR8 = molecular target: T1, TLR8 (Homo sapiens, UniProt Q9NR97); experiment: In vitro human TLR8 binding reporter assay (HEK-Blue, NF-kB/AP1-inducible SEAP); assay type: cell-based; conditions: read-out: TLR8 Agonist EC50
T1 construct: human HEK-Blue cells co-expressing a TLR7 or TLR8 gene
T1 sequence (Q9NR97 27-1041): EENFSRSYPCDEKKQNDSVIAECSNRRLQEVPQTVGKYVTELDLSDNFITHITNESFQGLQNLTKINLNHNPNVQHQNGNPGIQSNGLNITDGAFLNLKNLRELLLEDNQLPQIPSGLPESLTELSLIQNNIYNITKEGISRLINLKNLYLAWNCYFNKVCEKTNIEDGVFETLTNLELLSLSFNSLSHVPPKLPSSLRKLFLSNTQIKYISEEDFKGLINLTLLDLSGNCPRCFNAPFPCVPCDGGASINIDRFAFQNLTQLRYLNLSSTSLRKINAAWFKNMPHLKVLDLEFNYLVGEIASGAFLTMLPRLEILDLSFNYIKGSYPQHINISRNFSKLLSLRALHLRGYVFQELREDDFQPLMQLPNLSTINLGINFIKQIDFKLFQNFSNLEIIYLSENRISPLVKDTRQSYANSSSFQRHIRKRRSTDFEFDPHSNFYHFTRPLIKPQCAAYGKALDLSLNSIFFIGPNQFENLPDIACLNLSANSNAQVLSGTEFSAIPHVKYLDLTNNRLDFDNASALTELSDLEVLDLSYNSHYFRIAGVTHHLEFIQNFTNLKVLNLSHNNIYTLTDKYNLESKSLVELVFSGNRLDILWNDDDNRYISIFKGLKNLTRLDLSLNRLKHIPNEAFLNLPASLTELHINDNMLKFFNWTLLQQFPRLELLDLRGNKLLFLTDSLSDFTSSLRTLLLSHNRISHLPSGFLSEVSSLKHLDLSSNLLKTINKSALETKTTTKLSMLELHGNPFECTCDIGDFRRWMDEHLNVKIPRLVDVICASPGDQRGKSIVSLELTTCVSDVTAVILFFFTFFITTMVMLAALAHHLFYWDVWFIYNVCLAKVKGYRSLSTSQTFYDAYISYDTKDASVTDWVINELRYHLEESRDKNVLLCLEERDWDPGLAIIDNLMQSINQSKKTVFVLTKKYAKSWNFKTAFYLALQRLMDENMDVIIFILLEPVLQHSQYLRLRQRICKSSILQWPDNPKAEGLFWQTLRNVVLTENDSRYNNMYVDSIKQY
Outline: (§1)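 EC50s come from NF-kB/AP1-driven SEAP secretion in HEK-Blue cells expressing TLR7 or TLR8, measured with Quanti-Blue after an 18 h compound incubation. Maximal response is defined by a 50 μM reference standard.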

TLR7 = molecular target: T2, TLR7 (Homo sapiens, UniProt Q9NYK1); experiment: In vitro human TLR7 binding reporter assay (HEK-Blue, NF-kB/AP1-inducible SEAP); assay type: cell-based; conditions: read-out: TLR7 Agonist EC50
T2 construct: human HEK-Blue cells co-expressing a TLR7 or TLR8 gene
T2 sequence (Q9NYK1 27-1049): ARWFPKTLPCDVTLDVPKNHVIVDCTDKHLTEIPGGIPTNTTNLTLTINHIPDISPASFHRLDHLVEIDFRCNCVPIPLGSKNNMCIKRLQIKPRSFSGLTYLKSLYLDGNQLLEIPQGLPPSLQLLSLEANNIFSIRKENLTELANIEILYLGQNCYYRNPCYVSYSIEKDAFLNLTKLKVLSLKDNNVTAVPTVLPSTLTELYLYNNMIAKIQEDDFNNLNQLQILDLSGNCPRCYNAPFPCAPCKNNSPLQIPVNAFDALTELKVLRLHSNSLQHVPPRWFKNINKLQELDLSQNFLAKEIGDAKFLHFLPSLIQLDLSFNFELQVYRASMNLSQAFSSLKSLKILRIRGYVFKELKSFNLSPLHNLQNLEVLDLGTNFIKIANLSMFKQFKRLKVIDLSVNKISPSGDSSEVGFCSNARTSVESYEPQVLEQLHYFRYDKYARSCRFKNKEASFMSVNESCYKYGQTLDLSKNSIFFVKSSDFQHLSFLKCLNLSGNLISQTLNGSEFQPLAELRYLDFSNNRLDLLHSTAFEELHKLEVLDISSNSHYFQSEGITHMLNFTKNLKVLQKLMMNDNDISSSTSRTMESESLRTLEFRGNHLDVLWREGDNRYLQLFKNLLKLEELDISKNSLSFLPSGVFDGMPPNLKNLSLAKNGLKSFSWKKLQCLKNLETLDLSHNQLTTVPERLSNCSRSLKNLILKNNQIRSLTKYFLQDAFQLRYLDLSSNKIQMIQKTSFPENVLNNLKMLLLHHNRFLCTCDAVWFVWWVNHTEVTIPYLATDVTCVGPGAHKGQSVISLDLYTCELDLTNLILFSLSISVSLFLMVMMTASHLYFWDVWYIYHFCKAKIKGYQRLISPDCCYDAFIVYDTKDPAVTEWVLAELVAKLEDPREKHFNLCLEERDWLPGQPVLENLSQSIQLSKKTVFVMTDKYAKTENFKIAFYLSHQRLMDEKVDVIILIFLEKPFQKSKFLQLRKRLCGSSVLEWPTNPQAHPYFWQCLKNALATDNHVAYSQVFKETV
Outline: as §1

THP-1 cells = experiment: Measurement of IL-1β production, hTRF protocol (second alternative procedure), THP-1 cells; assay type: cell-based, human
Outline: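 Compounds, dilution series starting at a final 10 μM, were incubated 2 hours at 37° C with PMA-differentiated THP-1 cells (50 ng/ml overnight; 50,000 cells/well, 2% FBS RPMI). Released IL-1β quantified in supernatant by hTRF kit with 1:40 antibody dilution, 4° C overnight, 665/615 nm ratio.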

[1] = Homo sapiens, THP-1, IL-1β production, human cells, read-out: NLRP3 hILIB EC50
[2] = Homo sapiens, THP-1, IL-1β production, human, read-out: NLRP3 hILIB EC50

| SMILES | EC50 (TLR8; activity range) [µM] | EC50 (TLR7; activity range) [µM] | EC50 (THP-1 cells; [1]) [µM] | EC50 (TLR8; activity range class) [µM] | EC50 (TLR7; activity range class) [µM] | EC50 (THP-1 cells; [2]) [µM] | EC50 (THP-1 cells; IL-1β production, human, read-out: NLRP3 hILIB EC50) [µM] | EC50 (THP-1 cells; Homo sapiens, THP-1, read-out: NLRP3 hILIB EC50) [µM] |
| --- | --- | --- | --- | --- | --- | --- | --- | --- |
| Nc1nc2cc(-c3cc[nH]n3)ccc2c2[nH]c(CNCC(F)(F)F)cc12 [Example 497] | > 100 | > 100 | 0.05 |  |  |  |  |  |
| Nc1nc2cc(-c3cc[nH]n3)ccc2c2cn(CCNC(=O)c3coc(Cl)n3)nc12 [Example 176] |  |  |  | 20 to 100 | 20 to 100 | 0.05 |  |  |
| COC1CCC(n2cc3c(N)nc4cc(-c5cc[nH]n5)ccc4c3n2)C1 (stereo not drawn) [Example 246] |  |  |  | > 100 | > 100 | 0.58 |  |  |
| Nc1nc2cc(-c3cc[nH]n3)ccc2c2nn(C3CCC(O)C3)cc12 (single isomer, unassigned) [Example 342] |  |  |  | > 100 | > 100 |  | 0.34 |  |
| Nc1nc2cc(-c3cc[nH]n3)ccc2c2[nH]c(CNC(=O)C3CCCCO3)cc12 (stereo not drawn) [Example 413] | > 100 | > 100 | 1.92 |  |  |  |  |  |
| Nc1nc2cc(-c3cc[nH]n3)ccc2c2[nH]c(CCNC(=O)c3cccc(O)n3)cc12 [Example 519] | > 100 | > 100 | 2.07 |  |  |  |  |  |
| Nc1nc2cc(-c3cc[nH]n3)ccc2c2cn(CC(=O)Nc3ccccn3)nc12 [Example 28] |  |  |  | > 100 | > 100 | 1.31 |  |  |
| Cc1ccccc1CNCCn1cc2c(n1)c(N)nc1cc(-c3cc[nH]n3)ccc12 [Example 105, 2-(2-{[(2-methylphenyl)methyl]amino}ethyl)-7-(1H-pyrazol-3-yl)-2H-pyrazolo[3,4-c]quinolin-4-amine] |  |  |  | > 100 | 20 to 100 | 0.98 |  |  |
| Nc1nc2cc(-c3cc[nH]n3)ccc2c2c1cnn2C1COC1 [Example 242] |  |  |  | > 100 | > 100 | 0.68 |  |  |
| CC(CO)n1cc2c(N)nc3cc(-c4ccn[nH]4)ccc3c2n1 (stereo not drawn) [Example 253, 2-[4-amino-7-(1H-pyrazol-5-yl)-2H-pyrazolo[4,3-c]quinolin-2-yl]propan-1-ol] |  |  |  | > 100 | > 100 |  |  | 0.3 |
| Nc1nc2cc(-c3cc[nH]n3)ccc2c2cn(Cc3ccccn3)nc12 [Example 25] |  |  |  | > 100 | > 100 | 0.26 |  |  |
| Nc1nc2cc(-c3cc[nH]n3)ccc2c2cn(CCNC(=O)c3cccc(F)c3)nc12 [Example 77] |  |  |  | > 100 | > 100 | 1.68 |  |  |

Further lines, with some results ahead:

| EC50 (TLR8; activity range) [µM] | EC50 (TLR7; activity range) [µM] | EC50 (THP-1 cells; [1]) [µM] | EC50 (TLR8; activity range class) [µM] | EC50 (TLR7; activity range class) [µM] | EC50 (THP-1 cells; [2]) [µM] | EC50 (THP-1 cells; IL-1β production, human, read-out: NLRP3 hILIB EC50) [µM] | SMILES | EC50 (THP-1 cells; Homo sapiens, THP-1, read-out: NLRP3 hILIB EC50) [µM] |
| --- | --- | --- | --- | --- | --- | --- | --- | --- |
|  |  |  | > 100 | > 100 | 0.26 |  | CS(=O)(=O)NCCn1cc2c(N)nc3cc(-c4cc[nH]n4)ccc3c2n1 [Example 206, N-(2-(4-amino-7-(1H-pyrazol-3-yl)-2H-pyrazolo[4,3-c]quinolin-2-yl)ethyl)methanesulfonamide] |  |
| > 100 | > 100 | 9.94 |  |  |  |  | CC(C)(Cn1cc2c(N)nc3cc(-c4ccn[nH]4)ccc3c2n1)C(=O)NCc1ccccn1 [Example 611] |  |
| > 100 | > 100 | 0.33 |  |  |  |  | NC(=O)Cn1cc2c(N)nc3cc(-n4cccn4)ccc3c2n1 [Example 555] |  |
|  |  |  | > 100 | > 100 | 0.88 |  | Nc1nc2cc(-c3cc[nH]n3)ccc2c2nn(C[C@@H]3CCC(=O)N3)cc12 [Example 384] |  |
| > 100 | > 100 | 2.18 |  |  |  |  | CC(C)(Cn1cc2c(N)nc3cc(-c4ccn[nH]4)ccc3c2n1)C(=O)N1CC(F)(F)C1 [Example 599] |  |
| > 100 | > 100 | 0.7 |  |  |  |  | CC(C(=O)NC1CCC1)n1cc2c(N)nc3cc(-c4ccn[nH]4)ccc3c2n1 (stereo not drawn) [Example 562] |  |
| > 100 | > 100 | 19.7 |  |  |  |  | CC(C(=O)N1CCS(=O)(=O)CC1)n1cc2c(N)nc3cc(-c4ccn[nH]4)ccc3c2n1 (stereo not drawn) [Example 575] |  |
|  |  |  | > 100 | > 100 | 0.26 |  | CC(C)(CO)Cn1cc2c(N)nc3cc(-c4cc[nH]n4)ccc3c2n1 [Example 313] |  |
|  |  |  | > 100 | > 100 | 0.18 |  | Nc1nc2cc(-c3cc[nH]n3)ccc2c2nn(CCNC(=O)c3ccc(F)cn3)cc12 [Example 196] |  |
|  |  |  | > 100 | > 100 | 0.4 |  | Nc1nc2cc(-c3cc[nH]n3)ccc2c2nn(CC(O)CF)cc12 (single isomer, unassigned) [Example 376] |  |
|  |  |  | > 100 | > 100 | 0.4 |  | CN(C)Cc1nc2c(N)nc3cc(-c4ccn[nH]4)ccc3c2s1 [Example 143, 2-[(dimethylamino)methyl]-7-(1H-pyrazol-5-yl)-[1,3]thiazolo[4,5-c]quinolin-4-amine] |  |
|  |  |  | > 100 | > 100 | 4.65 |  | N#CC1(C(=O)NCCn2cc3c(N)nc4cc(-c5cc[nH]n5)ccc4c3n2)CC1 [Example 291] |  |
|  |  |  | > 100 | > 100 | 2.04 |  | Nc1nc2cc(-c3cc[nH]n3)ccc2c2nn(CCN3Cc4ccc(F)cc4C3=O)cc12 [Example 205, 2-(2-(4-amino-7-(1H-pyrazol-3-yl)-2H-pyrazolo[4,3-c]quinolin-2-yl)ethyl)-6-fluoroisoindolin-1-one] |  |
| > 100 | > 100 | 2.34 |  |  |  |  | Nc1nc2cc(-c3cc[nH]n3)ccc2c2nn(CCC(=O)NC3CCC3)cc12 [Example 504] |  |
